According to paper PMC10589313 (Nature Communications, 2023):
Values joined by “and” are separate entries in the source; they are usually repeats but may differ in a detail not shown here. Equal values may be shown once.

Tests used:
human H4R D94A mutant = biological target: T1, human H4R D94A mutant (Homo sapiens, UniProt Q9H3N8, D94A); assay: TGFα shedding assay, H4R D94A mutant; format: cell-based; settings: D94A mutant vs wild type
T1 construct: a mutant H4R (human, full-length, and untagged); expressed in transfected cells; host or cells: HEK293A
T1 sequence (Q9H3N8 whole entry D94A): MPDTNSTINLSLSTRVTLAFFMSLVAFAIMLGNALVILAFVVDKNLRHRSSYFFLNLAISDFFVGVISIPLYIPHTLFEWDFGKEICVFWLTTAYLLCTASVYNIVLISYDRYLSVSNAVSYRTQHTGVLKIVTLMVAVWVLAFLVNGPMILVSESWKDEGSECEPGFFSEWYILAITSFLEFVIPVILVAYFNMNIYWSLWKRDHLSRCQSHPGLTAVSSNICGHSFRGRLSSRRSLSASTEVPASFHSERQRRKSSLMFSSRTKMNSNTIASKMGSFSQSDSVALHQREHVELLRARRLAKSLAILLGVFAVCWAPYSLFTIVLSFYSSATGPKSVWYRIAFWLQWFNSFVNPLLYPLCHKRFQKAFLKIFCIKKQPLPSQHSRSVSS
Method: (§1) The mutants were prepared using the primers listed in Supplementary Table 2. […] The chimeric Gαq/i1 subunit comprises the Gαq backbone and Gαi1-derived six-amino acid C-terminus and couples with Gi-coupled H4R but induces a Gq-dependent TGFα shedding response. After culturing for 1 day and incubating at 37 °C in a 5% CO2 incubator, the transfected cells were harvested by trypsinization, neutralized with Dulbecco’s modified Eagle’s medium containing 10% fetal calf serum (FCS) and penicillin–streptomycin, washed once with Hank’s balanced salt solution (HBSS) containing 5 mM of HEPES (pH 7.4), and resuspended in 6 mL of the HEPES-containing HBSS. The cell suspension was seeded into a 96-well plate at a volume of […] per well (typically, 48 wells per transfected cells) and incubated for 30 min in the CO2 incubator. Test compounds (10×, diluted in 0.01% BSA and 5 mM of HEPES-containing HBSS, […] volume) were added to duplicate wells and incubated for 1 h. After centrifugation, the conditioned medium ([…]) was transferred to an empty 96-well plate. AP reaction solution [10 mM of p-nitrophenylphosphate (p-NPP), 120 mM of Tris–HCl (pH 9.5), 40 mM of NaCl, and 10 mM of MgCl2] was dispensed into the cell culture plates and plates containing conditioned media ([…]). Absorbance was measured at 405 nm before and after a 1-h incubation period at 25 °C using a microplate reader (iMark™ Microplate Absorbance Reader; BioRad). Ligand-induced AP-TGFα release was calculated as previously described. The vehicle-treated AP-TGFα release signal was set as a baseline unless otherwise specified. AP-TGFα release signals were fitted with a four-parameter sigmoidal concentration-response curve, from which EC50 and Emax values were obtained, using GraphPad Prism 9 software (GraphPad Prism). Negative values of logarithmically transformed EC50 values (pEC50) were used to calculate the mean and standard error of independent experiments.
(§2) All functional study data were analyzed using Prism 9 (GraphPad) and are presented as mean ± standard error of the mean (SEM) of three independent experiments. […]

H4R = settings: cited from earlier work
H1R = settings: range in words; cited from earlier work
H2R = settings: range in words; cited from earlier work
human H4R N147A mutant = biological target: T2, human H4R N147A mutant (Homo sapiens, UniProt Q9H3N8, N147A); assay: TGFα shedding assay, H4R N147A mutant; format: cell-based; settings: N147A mutant; AP-TGFα release; read-out: Emax (%) mean ± SEM
T2 construct: a mutant H4R (human, full-length, and untagged); expressed in transfected cells; host or cells: HEK293A
T2 sequence (Q9H3N8 whole entry N147A): as the sequence (Q9H3N8 whole entry D94A) above, with A94D, N147A counted along it
Method: as §1
(§3) All functional study data were analyzed using Prism 9 (GraphPad) and are presented as mean ± standard error of the mean (SEM) of three independent experiments. Statistical analyses were performed using Prism 9 (GraphPad) with one-way analysis of variance followed by Dunnett’s post-hoc test. Values with p < 0.05 are considered statistically significant.

human H4R Y95A mutant = biological target: T3, human H4R Y95A mutant (Homo sapiens, UniProt Q9H3N8, Y95A); assay: TGFα shedding assay, H4R Y95A mutant; format: cell-based; settings: Y95A mutant vs wild type
T3 construct: a mutant H4R (human, full-length, and untagged); expressed in transfected cells; host or cells: HEK293A
T3 sequence (Q9H3N8 whole entry Y95A): as the sequence (Q9H3N8 whole entry D94A) above, with A94D, Y95A counted along it
Method: as §1, §2

human H4R Q347A mutant = biological target: T4, human H4R Q347A mutant (Homo sapiens, UniProt Q9H3N8, Q347A); assay: TGFα shedding assay, H4R Q347A mutant; format: cell-based; settings: Q347A mutant; AP-TGFα release; read-out: Emax (%) mean ± SEM
T4 construct: a mutant H4R (human, full-length, and untagged); expressed in transfected cells; host or cells: HEK293A
T4 sequence (Q9H3N8 whole entry Q347A): as the sequence (Q9H3N8 whole entry D94A) above, with A94D, Q347A counted along it
Method: as §1, §3

H3R = settings: cited from earlier work
human H4R E182N mutant = biological target: T5, human H4R E182N mutant (Homo sapiens, UniProt Q9H3N8, E182N); assay: TGFα shedding assay, H4R E182N mutant; format: cell-based; settings: E182N (H1R mimic) mutant vs wild type
T5 construct: a mutant H4R (human, full-length, and untagged); expressed in transfected cells; host or cells: HEK293A
T5 sequence (Q9H3N8 whole entry E182N): as the sequence (Q9H3N8 whole entry D94A) above, with A94D, E182N counted along it
Method: as §1, §2

human H4R Q347G mutant = biological target: T6, human H4R Q347G mutant (Homo sapiens, UniProt Q9H3N8, Q347G); assay: TGFα shedding assay, H4R Q347G mutant; format: cell-based; settings: for Shedding assay: Q347G, raw replicates
T6 construct: a mutant H4R (human, full-length, and untagged); expressed in transfected cells; host or cells: HEK293A
T6 sequence (Q9H3N8 whole entry Q347G): as the sequence (Q9H3N8 whole entry D94A) above, with A94D, Q347G counted along it
Method: as §1, §3

human H4R F344I mutant = biological target: T7, human H4R F344I mutant (Homo sapiens, UniProt Q9H3N8, F344I); assay: TGFα shedding assay, H4R F344I mutant; format: cell-based; settings: F344I (H1R mimic) mutant vs wild type
T7 construct: a mutant H4R (human, full-length, and untagged); expressed in transfected cells; host or cells: HEK293A
T7 sequence (Q9H3N8 whole entry F344I): as the sequence (Q9H3N8 whole entry D94A) above, with A94D, F344I counted along it
Method: as §1, §3

human H4R N147W mutant = biological target: T8, human H4R N147W mutant (Homo sapiens, UniProt Q9H3N8, N147W); assay: TGFα shedding assay, H4R N147W mutant; format: cell-based; settings: N147W (H1R mimic) mutant vs wild type
T8 construct: a mutant H4R (human, full-length, and untagged); expressed in transfected cells; host or cells: HEK293A
T8 sequence (Q9H3N8 whole entry N147W): as the sequence (Q9H3N8 whole entry D94A) above, with A94D, N147W counted along it
Method: as §1, §3

human H4R Y319A mutant = biological target: T9, human H4R Y319A mutant (Homo sapiens, UniProt Q9H3N8, Y319A); assay: TGFα shedding assay, H4R Y319A mutant; format: cell-based; settings: Y319A, raw replicates
T9 construct: a mutant H4R (human, full-length, and untagged); expressed in transfected cells; host or cells: HEK293A
T9 sequence (Q9H3N8 whole entry Y319A): as the sequence (Q9H3N8 whole entry D94A) above, with A94D, Y319A counted along it
Method: as §1, §3

human H4R W348A mutant = biological target: T10, human H4R W348A mutant (Homo sapiens, UniProt Q9H3N8, W348A); assay: TGFα shedding assay, H4R W348A mutant; format: cell-based; settings: W348A mutant vs wild type
T10 construct: a mutant H4R (human, full-length, and untagged); expressed in transfected cells; host or cells: HEK293A
T10 sequence (Q9H3N8 whole entry W348A): as the sequence (Q9H3N8 whole entry D94A) above, with A94D, W348A counted along it
Method: as §1, §2

human H4R N147Y mutant = biological target: T11, human H4R N147Y mutant (Homo sapiens, UniProt Q9H3N8, N147Y); assay: TGFα shedding assay, H4R N147Y mutant; format: cell-based; settings: N147Y mutant; AP-TGFα release; read-out: Emax (%) mean ± SEM
T11 construct: a mutant H4R (human, full-length, and untagged); expressed in transfected cells; host or cells: HEK293A
T11 sequence (Q9H3N8 whole entry N147Y): as the sequence (Q9H3N8 whole entry D94A) above, with A94D, N147Y counted along it
Method: as §1, §3

human wild-type H4R = biological target: T12, human wild-type H4R (Homo sapiens, UniProt Q9H3N8); assay: TGFα shedding assay, wild-type H4R; format: cell-based; settings: WT H4R; AP-TGFα release; read-out: Emax (%) mean ± SEM
T12 construct: a mutant H4R (human, full-length, and untagged); expressed in transfected cells; host or cells: HEK293A
T12 sequence (Q9H3N8 whole entry): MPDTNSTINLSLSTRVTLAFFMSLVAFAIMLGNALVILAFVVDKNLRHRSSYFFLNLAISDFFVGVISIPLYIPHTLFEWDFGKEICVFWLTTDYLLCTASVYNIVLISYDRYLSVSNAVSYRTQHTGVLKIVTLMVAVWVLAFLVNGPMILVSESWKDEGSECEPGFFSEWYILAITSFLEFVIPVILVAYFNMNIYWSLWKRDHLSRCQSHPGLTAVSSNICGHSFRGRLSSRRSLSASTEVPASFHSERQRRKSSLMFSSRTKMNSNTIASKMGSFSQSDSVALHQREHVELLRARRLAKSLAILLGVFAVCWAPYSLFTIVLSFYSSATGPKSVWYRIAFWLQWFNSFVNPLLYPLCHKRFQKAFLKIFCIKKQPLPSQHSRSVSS
Method: as §1, §3

human H4R T99A mutant = biological target: T13, human H4R T99A mutant (Homo sapiens, UniProt Q9H3N8, T99A); assay: TGFα shedding assay, H4R T99A mutant; format: cell-based; settings: T99A mutant; AP-TGFα release; read-out: Emax (%) mean ± SEM
T13 construct: a mutant H4R (human, full-length, and untagged); expressed in transfected cells; host or cells: HEK293A
T13 sequence (Q9H3N8 whole entry T99A): as the sequence (Q9H3N8 whole entry D94A) above, with A94D, T99A counted along it
Method: as §1, §3

NCCc1c[nH]cn1 [Histamine, histamine]
signaling activity at mutant, in words (human H4R D94A mutant): loss of activity
affinity of H4R (H4R; range in words): nM range
affinity of H1R (H1R): μM range
affinity of H2R (H2R): μM range
Emax (human H4R N147A mutant): 14.1 ± 1.55%
signaling activity at mutant, in words (human H4R Y95A mutant): dramatically reduced
Emax (human H4R Q347A mutant): 10.1 ± 0.39%
affinity of H3R (H3R; range in words): nM range
signaling activity at mutant, in words (human H4R E182N mutant): loss of signaling activity
Shedding assay (human H4R Q347G mutant; Histamine (M) -5): 4.036 and 4.533 and 6.034 and 9.629 and 9.888 and 8.1039 and 5.715 and 9.816 and 2.227
Shedding assay (human H4R Q347G mutant; Histamine (M) -6): 1.244 and 2.414 and 2.709 and 6.101 and 2.59 and 6.7488 and 1.268 and 6.261 and -9.381
Shedding assay (human H4R Q347G mutant; Histamine (M) -7): -1.992
Shedding assay (human H4R Q347G mutant; Histamine (M) -8): -6.39 and -0.908 and -4.351 and 0.1532 and -4.023 and 1.012 and -2.686 and 0.1556 and -3.9539
Shedding assay (human H4R Q347G mutant; Histamine (M) -9): -4.698 and -2.781 and -3.3698 and 0.654 and -4.363 and -0.5978 and -4.585 and -1.275 and -2.147
Shedding assay (human H4R Q347G mutant; Histamine (M) -10): -5.104 and -0.2815 and -4.911 and 2.46 and -0.8571 and 1.119 and -8.947 and 3.16 and -0.4453
Emax (human H4R Q347G mutant; Q347G mutant, AP-TGFα release, read-out: Emax (%) mean ± SEM): 8.8 ± 2.03%
signaling activity at mutant, in words (human H4R F344I mutant): did not exhibit histamine activity
signaling activity at mutant, in words (human H4R N147W mutant): loss of signaling activity
Shedding assay (human H4R Y319A mutant; Histamine (M) -5): 10.8768 and 12.6921 and 5.241 and 7.176 and 7.908 and 3.094 and 14.7688 and 13.1717 and 9.412
Shedding assay (human H4R Y319A mutant; Histamine (M) -6): 7.788 and 3.872 and 6.096 and 6.136 and 6.023 and -28.9656 and 4.365 and 5.9934 and -0.2046
Shedding assay (human H4R Y319A mutant; Histamine (M) -7): 2.44 and -1.231 and 2.155 and 1.85 and -1.394 and -29.3347 and -0.9921 and -1.291 and -2.241
Shedding assay (human H4R Y319A mutant; Histamine (M) -8): 0.6613 and -7 and -0.6175 and -0.4917 and -2.608 and -5.072 and 0.7937 and -1.913 and -2.583
Shedding assay (human H4R Y319A mutant; Histamine (M) -9): -1.209 and -22 and -6.981 and -12.6602 and -5.831 and -0.2422 and 1.077 and -0.278 and -3.864
Shedding assay (human H4R Y319A mutant; Histamine (M) -10): 1.569 and -4.989 and -1.258 and -2.207 and 3.939 and 1.7806 and 0.1134 and -2.911 and -0.5847
signaling activity at mutant, in words (human H4R W348A mutant): loss of signaling activity
Emax (human H4R N147Y mutant): 12.7 ± 0.59%
Emax (human wild-type H4R): 19.4 ± 1.15%
Emax (human H4R T99A mutant): 22.8 ± 4.74%

CN=C(NC#N)NC[C@H]1CC[C@H](c2cnc[nH]2)O1 [OUP-16]
selectivity for H4R (H4R; H4R over H3R): 16 fold
Ki (H4R; read-out: H4R Ki): 125 nM
Ki (H3R; read-out: H3R Ki): 2000 nM
